According to patent publication US20050267092A1, “Novel cephalosporin compounds and process for preparing the same” (priority 2002, published 2005):
Values after ≈ are worked out from the molar mass of the structure shown. Like-named read-outs stand apart in the source and are kept apart here.

Columns and labels:
Experiment in all cases: Minimum Inhibitory Concentration (MIC), agar dilution, standard strains
Format in all cases: cell-based
S. aureus K311 = details: for MIC: Staphylococcus aureus, read-out: Minimum Inhibitory Concentration (MIC), S. aureus K311
Method: (§1) Minimum Inhibitory Concentration (MIC)
(§2) The effectiveness of the compound according to the present invention was determined by obtaining Minumum Inhibitory Concentration (MIC) of the compounds prepared by the above examples (Compounds I-1˜I-6, I-10) and Vancomycin, which is the known compound having a potent activity against gram-positive strains, as the control drug against the standard strains. Specifically, Minimum Inhibitory Concentration was obtained by diluting the test compounds according to a double dilution method, dispersing them in Mueller-Hinton agar medium, inoculating each of the test strains having 10^7 cfu (colony forming unit) per ml in an amount of 2 μl to the medium and then incubating them at 37° C. for 20 hours. From the results of Minimum Inhibitory Concentration test, it can be seen that the compound according to the present invention has a good activity against major pathogenic microorganisms, which cause hospital infection, including MRSA strains.

S. epidermidis Q033 = details: for MIC: Staphylococcus epidermidis, read-out: Minimum Inhibitory Concentration (MIC), S. epidermidis Q033
Method: as §1, §2

E. faecalis 2168 = details: for MIC: read-out: Minimum Inhibitory Concentration (MIC), E. faecalis 2168
Method: as §1, §2

S. aureus giorgio = details: for MIC: Staphylococcus aureus, read-out: Minimum Inhibitory Concentration (MIC), S. aureus giorgio
Method: as §1, §2

S. aureus 77 = details: for MIC: read-out: Minimum Inhibitory Concentration (MIC), S. aureus 77
Method: as §1, §2

[1] = Mueller-Hinton agar, double dilution, 37° C. for 20 hours
[2] = K311, Mueller-Hinton agar, double dilution, 37° C. for 20 hours
[3] = Q033, Mueller-Hinton agar, double dilution, 37° C. for 20 hours
[4] = Enterococcus faecalis, 2168, Mueller-Hinton agar, double dilution, 37° C. for 20 hours
[5] = Staphylococcus aureus, 77, Mueller-Hinton agar, double dilution, 37° C. for 20 hours

Row | Compound | MIC (S. aureus K311; [2]) | MIC (S. epidermidis Q033; [3]) | MIC (E. faecalis 2168; [4]) | MIC (S. aureus giorgio; [1]) | MIC (S. aureus 77; [5]) | further results
1 | Cc1cc(S/C=C/C2=C(C(=O)O)N3C(=O)[C@@H](NC(=O)C(=NO)c4nc(N)sc4Cl)[C@H]3SC2)nc(SCCN)n1 [Compound I-5] | – | – | – | – | – | Minimum Inhibitory Concentration (MIC), S. aureus K311 (S. aureus K311; [1]): 2 µg/mL; Minimum Inhibitory Concentration (MIC), S. epidermidis Q033 (S. epidermidis Q033; [1]): 0.13 µg/mL; Minimum Inhibitory Concentration (MIC), E. faecalis 2168 (E. faecalis 2168; [1]): 0.25 µg/mL; Minimum Inhibitory Concentration (MIC), S. aureus giorgio (S. aureus giorgio; [1]): 0.25 µg/mL; Minimum Inhibitory Concentration (MIC), S. aureus 77 (S. aureus 77; [1]): 1 µg/mL
2 | Nc1cc(S/C=C/C2=C(C(=O)O)N3C(=O)[C@@H](NC(=O)C(=NOC4CCCC4)c4nc(N)sc4Cl)[C@H]3SC2)nc(N)n1 [Compound I-10, (6R,7R)-7-({2-(2-amino-5-chloro-1,3-thiazol-4-yl)-2-[(cyclopentyloxy)imino]acetyl}amino)-3-{(E)-2-[(2,6-diamino-4-pyrimidinyl)sulfanyl]ethenyl}-8-oxo-5-thia-1-azabicyclo[4.2.0]oct-2-ene-2-carboxylic acid] | 2 µg/mL (≈ 3.13 µM) | 0.063 µg/mL (≈ 0.0987 µM) | 4 µg/mL (≈ 6.27 µM) | 0.5 µg/mL (≈ 0.784 µM) | 2 µg/mL (≈ 3.13 µM) | –
3 | CN[C@H](CC(C)C)C(=O)N[C@H]1C(=O)N[C@@H](CC(N)=O)C(=O)N[C@H]2C(=O)N[C@H]3C(=O)N[C@H](C(=O)N[C@H](C(=O)O)c4cc(O)cc(O)c4-c4cc3ccc4O)[C@H](O)c3ccc(c(Cl)c3)Oc3cc2cc(c3O[C@@H]2O[C@H](CO)[C@@H](O)[C@H](O)[C@H]2O[C@H]2C[C@](C)(N)[C@H](O)[C@H](C)O2)Oc2ccc(cc2Cl)[C@H]1O [Vancomycin, reference compound] | – | – | – | – | – | MIC (S. aureus K311; K311, 20 h): 2 µg/mL (≈ 1.38 µM); MIC (S. epidermidis Q033; Q033, 20 h): 1 µg/mL (≈ 0.69 µM); MIC (E. faecalis 2168; Enterococcus faecalis, 2168, 20 h): > 64 µg/mL; MIC (S. aureus giorgio; 20 h): 1 µg/mL (≈ 0.69 µM); MIC (S. aureus 77; Staphylococcus aureus, 77, 20 h): 1 µg/mL (≈ 0.69 µM)
4 | Nc1cc(S/C=C/C2=C(C(=O)O)N3C(=O)[C@@H](NC(=O)C(=NO)c4nc(N)sc4Cl)[C@H]3SC2)nc(O)n1 [Compound I-1, (6R,7R)-7-{[2-(2-amino-5-chloro-1,3-thiazol-4-yl)-2-(hydroxyimino)acetyl]amino}-3-{(E)-2-[(6-amino-2-hydroxy-4-pyrimidinyl)sulfanyl]ethenyl}-8-oxo-5-thia-1-azabicyclo[4.2.0]oct-2-ene-2-carboxylic acid] | 0.5 µg/mL (≈ 0.876 µM) | 0.063 µg/mL (≈ 0.11 µM) | 0.5 µg/mL (≈ 0.876 µM) | 0.13 µg/mL (≈ 0.228 µM) | 0.25 µg/mL (≈ 0.438 µM) | –
5 | NCCSc1nccc(S/C=C/C2=C(C(=O)O)N3C(=O)[C@@H](NC(=O)C(=NO)c4nc(N)sc4Cl)[C@H]3SC2)n1 [Compound I-4, (6R,7R)-7-{[2-(2-amino-5-chloro-1,3-thiazol-4-yl)-2-(hydroxyimino)acetyl]amino}-3-{(E)-2-({2-[(2-aminoethyl)sulfanyl]-4-pyrimidinyl}sulfanyl)ethenyl}-8-oxo-5-thia-1-azabicyclo[4.2.0]oct-2-ene-2-carboxylic acid] | 2 µg/mL (≈ 3.25 µM) | 0.13 µg/mL (≈ 0.211 µM) | 1 µg/mL (≈ 1.63 µM) | 0.25 µg/mL (≈ 0.406 µM) | 1 µg/mL (≈ 1.63 µM) | –

More lines, main results first:

Row | MIC (S. aureus K311; [2]) | MIC (S. epidermidis Q033; [3]) | MIC (E. faecalis 2168; [4]) | MIC (S. aureus giorgio; [1]) | MIC (S. aureus 77; [5]) | Compound | further results
6 | 0.5 µg/mL (≈ 0.876 µM) | 0.063 µg/mL (≈ 0.11 µM) | 0.5 µg/mL (≈ 0.876 µM) | 0.13 µg/mL (≈ 0.228 µM) | 0.5 µg/mL (≈ 0.876 µM) | Nc1nc(O)cc(S/C=C/C2=C(C(=O)O)N3C(=O)[C@@H](NC(=O)C(=NO)c4nc(N)sc4Cl)[C@H]3SC2)n1 [Compound I-3, (6R,7R)-7-{[2-(2-amino-5-chloro-1,3-thiazol-4-yl)-2-(hydroxyimino)acetyl]amino}-3-{(E)-2-[(2-amino-6-hydroxy-4-pyrimidinyl)sulfanyl]ethenyl}-8-oxo-5-thia-1-azabicyclo[4.2.0]oct-2-ene-2-carboxylic acid] | –
7 | 0.5 µg/mL (≈ 0.84 µM) | 0.031 µg/mL (≈ 0.0521 µM) | 0.5 µg/mL (≈ 0.84 µM) | 0.13 µg/mL (≈ 0.218 µM) | 0.5 µg/mL (≈ 0.84 µM) | Nc1nc(C(=NO)C(=O)N[C@@H]2C(=O)N3C(C(=O)O)=C(/C=C/Sc4nc(N)c5cn[nH]c5n4)CS[C@H]23)c(Cl)s1 [Compound I-6, (6R,7R)-7-{[2-(2-amino-5-chloro-1,3-thiazol-4-yl)-2-(hydroxyimino)acetyl]amino}-3-{(E)-2-[(4-amino-1H-pyrazolo[3,4-d]pyrimidin-6-yl)sulfanyl]ethenyl}-8-oxo-5-thia-1-azabicyclo[4.2.0]oct-2-ene-2-carboxylic acid] | –
8 | 1 µg/mL (≈ 1.75 µM) | 0.063 µg/mL (≈ 0.111 µM) | 1 µg/mL (≈ 1.75 µM) | 0.13 µg/mL (≈ 0.228 µM) | 1 µg/mL (≈ 1.75 µM) | Nc1cc(S/C=C/C2=C(C(=O)O)N3C(=O)[C@@H](NC(=O)C(=NO)c4nc(N)sc4Cl)[C@H]3SC2)nc(N)n1 [Compound I-2, (6R,7R)-7-{[2-(2-amino-5-chloro-1,3-thiazol-4-yl)-2-(hydroxyimino)acetyl]amino}-3-{(E)-2-[(2,6-diamino-4-pyrimidinyl)sulfanyl]ethenyl}-8-oxo-5-thia-1-azabicyclo[4.2.0]oct-2-ene-2-carboxylic acid] | –
